Consider 12 molecules from PubChem BioAssay (NCI).

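Compound exposure: 48 hours, 5 concentrations, 96-well plates. The concentration for 50% growth inhibition is given as GI50. The concentration for full growth arrest is given as TGI.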 Some results are limits rather than exact numbers.

Test in all cases: NCI-60 cell line screen, 48 h
Assay [1] relates to ACHN renal.
Assay [2] deals with MCF7 breast.
For assay [3], the system named is NCI-H460 lung.
Assay [4] concerns NCI-H522 lung.
Assay [5] concerns OVCAR-8 ovarian.
In assay [6] the test system is SF-268 CNS.
The test system of assay [7] is SK-MEL-2 melanoma.
The subject of assay [8] is SK-MEL-28 melanoma.
Assay [9] deals with SNB-19 CNS.
Assay [10] has as its system SW-620 colon.

In the case of `CC(=Nc1ccccc1)C1=C(O)C(Cc2ccccc2)NC1=O` (centres undefined), the GI50 in [1] is 0.0625 µM; in assay [2] it was 0.0367 µM; in assay [3] it was 0.0375 µM; in [4] it was 0.0216 µM; in assay [5], 0.0945 µM; in assay [6], 0.0586 µM. The GI50 in assay [7] was 0.0447 µM; in assay [8], 0.0712 µM; in assay [9] it was 0.0765 µM; in assay [10], 0.0328 µM. The TGI is greater than 100 µM in [1]; greater than 100 µM in assay [2]; 1.26 µM in [3]; 0.0645 µM in [4]; greater than 100 µM in assay [5]; greater than 76.2 µM in [6]. Further, the TGI in assay [7] was greater than 31.5 µM; in [8], greater than 100 µM; in assay [9], greater than 100 µM; in assay [10] it was greater than 100 µM.
For the molecule `CCCCS(=O)(=O)CCC(N)C(=O)O` (centres undefined), the TGI in assay [1], in assay [2], in [3], in [4], in assay [5] and in assay [6] was greater than 100 µM in each case. Further, the TGI in [7], in assay [8], in assay [9] and in assay [10] was greater than 100 µM in each case.
Consider `Cc1occc1C(=S)Nc1ccc(Cl)c(C(=O)OC(C)C2CC2)c1` (centres undefined), for which the TGI was 42 µM in assay [1]; 57.3 µM in [2]; greater than 100 µM in [3]; 32.9 µM in [4]; 43.2 µM in assay [5]; 59.3 µM in assay [6]. Further, the TGI was 38.4 µM in assay [7], greater than 100 µM in assay [8], 39 µM in assay [9] and greater than 100 µM in assay [10].
Turning to `COc1cc2c(cc1C)NC(=O)/C2=C\c1cccc(Oc2ccccc2)c1`, the GI50 in assay [1] is 17.3 µM; in [2] it was 6.73 µM; in assay [3] it was 12.9 µM; in [4], 13.5 µM; in assay [5] it was 25.1 µM; in [6], 13.9 µM. The GI50 is 20.1 µM in assay [7], 18.1 µM in [8], 14.3 µM in assay [9] and 16.1 µM in assay [10]. Also, the TGI in assay [1] is 31 µM; in assay [2] it was 24 µM; in assay [3] it was 27.2 µM; in assay [4], 34.4 µM; in assay [5], greater than 100 µM; in [6], 31.5 µM. Moreover, the TGI in assay [7] came to 47.1 µM; in [8] it was 34.9 µM; in [9], 28.1 µM; in assay [10], 32.9 µM.
For `O=C(O)c1cccc(N=Nc2c(S(=O)(=O)O)ccc3c2C(=O)c2ccccc2C3=O)c1O`, the TGI in assay [1], in [2], in [3], in assay [4], in assay [5] and in assay [6] was greater than 100 µM each time. In addition, the TGI in [7], in assay [8], in assay [9] and in [10] was greater than 100 µM throughout.
With `O=C1c2ccccc2C(=O)c2c1ccc(C1C(=O)c3ccccc3C1=O)c2-c1c(C2C(=O)c3ccccc3C2=O)ccc2c1C(=O)c1ccccc1C2=O`, the TGI in [1], in [2], in assay [3], in [4], in assay [5] and in [6] was greater than 100 µM each time. The TGI in [7], in [8], in assay [9] and in assay [10] was greater than 100 µM each time.
Consider `CN(CC(=O)N(Cc1ccc(C2CCCCC2)cc1)c1ccc(C(=O)O)c(O)c1)S(=O)(=O)c1c(F)c(F)c(F)c(F)c1F`, for which the GI50 in assay [1] was 15.3 µM; in [2] it was 3.56 µM; in [3] it was 16.4 µM; in assay [4], 2.74 µM; in assay [5] it was 7.11 µM; in assay [6], 7.19 µM. Further, the GI50 in assay [7] is 2.2 µM; in assay [8], 1.86 µM; in assay [9], 11.3 µM; in assay [10] it was 1.71 µM. Moreover, the TGI in assay [1] is 28.8 µM; in assay [2], 15.1 µM; in [3], 36.5 µM; in [4] it was 8.51 µM; in assay [5], 20.5 µM; in [6], 20.9 µM. Besides, the TGI in [7] came to 4.76 µM; in assay [8] it was 3.89 µM; in assay [9], 25.1 µM; in assay [10], 3.23 µM.
Regarding `COc1cc2c(cc1Nc1nc(Nc3ccsc3C(N)=O)c3cc[nH]c3n1)N(C(=O)CN(C)C)CCC2(C)C`, the GI50 in assay [1] is 2.56 µM; in [2], less than 0.0025 µM; in assay [3] it was 0.889 µM; in assay [4], 0.764 µM; in [5], 1.64 µM; in [6], 2.6 µM. In addition, the GI50 in assay [7] was 0.515 µM; in assay [8], 3.06 µM; in assay [9], 3.62 µM; in [10], 0.357 µM. The TGI in [1] amounted to 5.53 µM; in assay [2], 2.97 µM; in assay [3], 5.3 µM; in [4] it was 3.76 µM; in [5], 5.69 µM; in [6], 5.75 µM. In addition, the TGI in assay [7] turned out to be 3.63 µM; in [8], 6.41 µM; in assay [9] it was 7.1 µM; in assay [10], 4.1 µM.
For the molecule `O=C(/C=C/c1cc([N+](=O)[O-])ccc1Cl)c1ccccc1`, the GI50 is 16.4 µM in [1]; 2.76 µM in assay [2]; 14.1 µM in assay [3]; 15 µM in assay [4]; 12.2 µM in [5]; 16.9 µM in [6]. The GI50 in assay [7] was 24.6 µM; in assay [8], 14.3 µM; in assay [9] it was 13.3 µM; in assay [10] it was 2.05 µM. Further, the TGI turned out to be 31.9 µM in [1]; 17.4 µM in [2]; 33.7 µM in assay [3]; 36.8 µM in [4]; 33.5 µM in [5]; 43.6 µM in [6]. Further, the TGI in assay [7] is 72.3 µM; in assay [8], 29 µM; in [9], 28.3 µM; in [10] it was 3.9 µM.
Consider `CN1c2ccccc2C(C)(C)C12C=Cc1cc(O)ccc1O2` (centres undefined), for which the GI50 in assay [1] was 7.2 µM; in assay [2], 3.52 µM; in assay [3], 2.28 µM; in assay [4] it was 3.6 µM; in [5], 3.16 µM; in assay [6], 2.76 µM. Further, the GI50 is 3.05 µM in assay [7], 3.94 µM in assay [8], 2.94 µM in assay [9] and 3.4 µM in [10]. For the same molecule, the TGI in assay [1] came to 22.9 µM; in assay [3], 6.45 µM; in [4], 24.9 µM; in [5], 12.9 µM; in assay [6], 10.5 µM; in assay [7], 11.5 µM. The values for the TGI in assay [8], in [9] and in [10] were 15.5 µM, 8.46 µM and 13.8 µM, respectively.
Turning to `COc1cc(O)c(C(=O)/C=C/c2ccc(O)cc2)c(O)c1[C@@H]1C[C@H](CCc2ccc(O)cc2)O[C@H](c2ccc(O)cc2)C1`, the GI50 is 3.31 µM in assay [1]; 3.08 µM in [2]; 3 µM in assay [3]; 2.97 µM in [4]; 3.77 µM in assay [5]; 3.85 µM in assay [6]. In addition, the GI50 in assay [7] was 3.62 µM; in assay [8] it was 3.83 µM; in assay [9], 3.58 µM; in assay [10] it was 2.23 µM. Further, the TGI in assay [1] came to 10.9 µM; in assay [2], 8.85 µM; in [3], 7.87 µM; in assay [4] it was 9.94 µM; in assay [5], 29.1 µM; in [6], 14.7 µM. Besides, the TGI turned out to be 17.5 µM in assay [7], 14.1 µM in assay [8], 13.3 µM in assay [9] and 4.91 µM in assay [10].
`N#CSCC1CC(O)(c2ccccc2)CC(c2ccc(F)cc2)O1` (centres undefined): the GI50 in [1] is 2.1 µM; in assay [2], 2.64 µM; in [3], 2.08 µM; in assay [4], 1.4 µM; in [5], 2.02 µM; in [6], 1.65 µM. Moreover, the GI50 in [7] is 1.66 µM; in assay [8], 4.23 µM; in assay [9], 4.14 µM; in assay [10], 2.07 µM. For the same molecule, the TGI in assay [1] came to 6.43 µM; in [2] it was 8.33 µM; in assay [3], 4.34 µM; in assay [4], 3.1 µM; in [5] it was 4.37 µM; in [6], 3.3 µM. The TGI in assay [7] came to 3.39 µM; in assay [8], 15.4 µM; in [9], 13.7 µM; in assay [10] it was 3.74 µM.
